Data from the supplement of paper PMC10307832.

Columns and labels:
Assay in all cases: relative viability (nuclei count vs DMSO), 5 days (fraction); higher = more cells survive
AGI-6780 + Palbociclib = compound: O=C(Nc1cccc(C(F)(F)F)c1)Nc1cc(S(=O)(=O)NC2CC2)ccc1-c1ccsc1 [AGI-6780] + CC(=O)c1c(C)c2cnc(Nc3ccc(N4CCNCC4)cn3)nc2n(C2CCCC2)c1=O [Palbociclib] (partner 0.5 µM)
Procedure, shortened: (§1)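 For relative viability, nuclei counts in treated wells were divided by those in vehicle wells. Lung cancer cell lines had been pin-tool dosed in 1536-well plates the day after seeding and cultured for 5 days, then fixed and stained in one step (final 0.05% Triton X-100, 1% formaldehyde, 1 ug/ml Hoechst) and imaged at 4×. Doses were one drug alone or a fixed anchor-drug dose plus five library-drug doses (not always all listed) in √10 steps, and values are duplicate-plate medians.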

AGI-6780 + Pictilisib = compound: O=C(Nc1cccc(C(F)(F)F)c1)Nc1cc(S(=O)(=O)NC2CC2)ccc1-c1ccsc1 [AGI-6780] + CS(=O)(=O)N1CCN(Cc2cc3nc(-c4cccc5[nH]ncc45)nc(N4CCOCC4)c3s2)CC1 [Pictilisib] (partner 1 µM)
Procedure, shortened: as §1

AGI-6780 + Phenformin = compound: O=C(Nc1cccc(C(F)(F)F)c1)Nc1cc(S(=O)(=O)NC2CC2)ccc1-c1ccsc1 [AGI-6780] + N=C(N)NC(=N)NCCc1ccccc1 [Phenformin] (partner 250 µM)
Procedure, shortened: as §1

AGI-6780 + Decitabine = compound: O=C(Nc1cccc(C(F)(F)F)c1)Nc1cc(S(=O)(=O)NC2CC2)ccc1-c1ccsc1 [AGI-6780] + Nc1ncn([C@H]2C[C@H](O)[C@@H](CO)O2)c(=O)n1 [Decitabine] (partner 2 µM)
Procedure, shortened: as §1

Row | Cell Line | relative viability (AGI-6780 + Palbociclib; first compound 0.08 µM) | relative viability (AGI-6780 + Palbociclib; first compound 0.253 µM) | relative viability (AGI-6780 + Palbociclib; first compound 0.8 µM) | relative viability (AGI-6780 + Palbociclib; first compound 2.53 µM) | relative viability (AGI-6780 + Palbociclib; first compound 8 µM) | relative viability (AGI-6780 + Pictilisib; first compound 0.08 µM) | relative viability (AGI-6780 + Pictilisib; first compound 0.253 µM) | relative viability (AGI-6780 + Pictilisib; first compound 0.8 µM) | relative viability (AGI-6780 + Pictilisib; first compound 2.53 µM) | relative viability (AGI-6780 + Pictilisib; first compound 8 µM) | relative viability (AGI-6780 + Phenformin; first compound 0.08 µM) | relative viability (AGI-6780 + Phenformin; first compound 0.253 µM) | relative viability (AGI-6780 + Phenformin; first compound 0.8 µM) | relative viability (AGI-6780 + Phenformin; first compound 2.53 µM) | relative viability (AGI-6780 + Phenformin; first compound 8 µM) | relative viability (AGI-6780 + Decitabine; first compound 0.08 µM) | relative viability (AGI-6780 + Decitabine; first compound 0.253 µM) | relative viability (AGI-6780 + Decitabine; first compound 0.8 µM) | relative viability (AGI-6780 + Decitabine; first compound 2.53 µM) | relative viability (AGI-6780 + Decitabine; first compound 8 µM)
1 | HARA | 0.235 | 0.271 | 0.167 | 0.257 | 0.278 | 0.379 | 0.406 | 0.54 | 0.587 | 0.371 | 0.402 | 0.483 | 0.436 | 0.324 | 0.399 | 0.481 | 0.446 | 0.513 | 0.402 | 0.61
2 | H3255 | 0.292 | 0.304 | 0.307 | 0.315 | 0.31 | 0.475 | 0.436 | 0.512 | 0.457 | 0.443 | 0.39 | 0.381 | 0.384 | 0.358 | 0.385 | 0.54 | 0.612 | 0.719 |  | 0.542
3 | SK-LU-1 | 0.422 | 0.411 | 0.284 | 0.409 | 0.39 | 0.496 | 0.57 | 0.437 | 0.435 | 0.752 | 0.549 | 0.555 |  | 0.404 | 0.588 | 0.73 | 0.63 | 0.567 | 0.583 | 0.572
4 | NCI-H1793 | 0.347 | 0.328 | 0.342 | 0.262 | 0.287 | 0.272 | 0.364 | 0.351 | 0.344 | 0.303 | 0.458 | 0.406 | 0.386 | 0.264 | 0.365 | 0.519 | 0.539 | 0.415 | 0.342 | 0.549
5 | EMC-BAC-2 |  | 0.535 | 0.487 | 0.437 | 0.543 | 0.579 | 0.575 | 0.602 | 0.395 | 0.617 | 0.57 | 0.602 | 0.508 | 0.456 | 0.531 |  | 1.01 | 0.927 | 0.855 | 1.04
6 | NCI-H2347 | 0.451 | 0.469 | 0.413 | 0.385 | 0.481 | 0.747 | 0.648 | 0.591 | 0.553 | 0.897 | 0.424 | 0.574 | 0.378 | 0.351 | 0.373 | 0.706 | 0.62 | 0.553 | 0.643 | 0.65
7 | EPLC-272H | 0.318 | 0.356 | 0.318 | 0.337 | 0.329 | 0.39 | 0.33 | 0.257 | 0.344 | 0.318 |  | 0.341 | 0.243 | 0.28 | 0.274 | 0.405 | 0.348 | 0.359 | 0.372 | 0.374
8 | LU99A | 0.417 | 0.435 | 0.494 | 0.334 | 0.452 | 0.396 | 0.339 | 0.339 | 0.273 | 0.317 | 0.866 | 0.747 | 0.815 | 0.773 | 0.79 | 0.889 | 1.09 | 0.903 | 0.805 | 0.988
9 | LXF-289 | 0.606 | 0.65 | 0.586 | 0.586 | 0.6 | 0.827 | 0.803 | 0.766 | 0.741 | 0.827 | 0.516 | 0.518 | 0.538 | 0.529 | 0.541 | 0.33 | 0.393 | 0.358 | 0.311 | 0.366
10 | NCI-H1395 | 0.629 | 0.603 | 0.616 | 0.572 | 0.656 | 0.638 | 0.626 | 0.574 |  | 0.65 | 0.469 | 0.46 | 0.45 | 0.397 | 0.449 | 0.738 | 0.789 | 0.747 | 0.676 | 0.742
11 | NCI-H520 | 0.208 | 0.25 | 0.232 | 0.235 | 0.207 | 0.278 | 0.315 | 0.332 | 0.257 | 0.29 | 0.733 | 0.699 | 0.743 | 0.431 | 0.622 | 0.599 | 0.482 | 0.434 | 0.392 | 0.467
12 | 201T | 0.359 | 0.367 | 0.353 | 0.329 | 0.344 | 0.699 | 0.735 | 0.686 | 0.647 | 0.702 | 0.495 | 0.41 | 0.486 | 0.427 | 0.492 | 0.88 | 0.841 | 0.861 | 0.87 | 0.878
13 | NCI-H1944 | 0.365 | 0.331 | 0.32 |  | 0.403 | 0.358 | 0.366 | 0.386 | 0.323 | 0.381 | 0.212 | 0.215 | 0.213 |  | 0.217 | 0.448 | 0.445 | 0.399 |  | 0.425
14 | NCI-H3122 | 0.217 | 0.148 | 0.172 | 0.178 | 0.217 | 0.584 | 0.563 | 0.625 | 0.548 | 0.62 | 0.326 | 0.378 | 0.421 | 0.399 | 0.36 | 0.447 | 0.411 | 0.42 | 0.331 | 0.498
15 | NCI-H1734 | 0.371 | 0.379 | 0.297 | 0.285 | 0.352 | 0.528 | 0.479 | 0.419 |  | 0.447 | 0.395 | 0.427 | 0.45 | 0.305 | 0.377 | 0.506 | 0.566 | 0.528 | 0.372 | 0.48
16 | NCI-H1792 |  | 0.574 | 0.668 | 0.66 | 0.615 | 0.302 | 0.279 | 0.281 | 0.245 | 0.242 | 0.159 | 0.279 | 0.195 | 0.241 | 0.345 | 0.665 | 0.437 | 0.536 |  | 0.49
